Measurements taken from patent publication US10889592B2, “Thienopyrazine carboxamides as ubiquitin-specific protease inhibitors” (VALO EARLY DISCOVERY, INC., priority 2016, dated 2021).

Experiments:
USP28 = USP28 (Homo sapiens (Human), UniProt Q96RU2); experiment: Ubiquitin-Rhodamine 110 Assay for USP28 Activity; assay type: biochemical; conditions: Ub-Rh110 substrate 25 nM, fluorescence readout
Method: Each assay was performed in a final volume of 20 μL in assay buffer containing 20 mM Tris-HCl (pH 8.0, (1M Tris-HCl, pH 8.0 solution; Corning 46-031-CM)), 2 mM CaCl2) (1M Calcium Chloride solution; Sigma #21114) 2 mM BME (2-Mercaptoethanol; Sigma 63689-25ML-F), 0.01% Prionex (0.22 μM filtered, Sigma # G-0411), and 0.01% Triton X-100. Stock compound solutions were stored at −20° C. as 10 mM in DMSO. Up to 1 month prior to the assay, 2 mM test compounds were pre-dispensed into assay plates (Black, low volume; Corning #3820) and frozen at −20° C. Prestamped assay plates were allowed to come to room temperature on the day of the assay. For the screen, 100 nL of 2 mM was pre-dispensed for a final screening concentration of 10 μM (DMSO(fc)=0.5%). Enzyme (USP28, construct USP28 (USP28-5(1-1077)-TEV-6*His; LifeSensors) concentration and incubation times were optimized for the maximal signal-to-background while maintaining initial velocity conditions at a fixed substrate concentration. The final concentration of the enzyme in the assay was 400 pM. Final substrate (Ub-Rh110; Ubiquitin-Rhodamine 110, R&D Systems # U-555) concentration was 25 nM with [Ub-Rh110]<<Km. 10 μL of 2× enzyme was added to assay plates (pre-stamped with compound) either simultaneously with 2×Ub-Rh110 or preincubated with USP28 40 minutes prior to the addition of 10 μL of 2×Ub-Rh110 to compound plates. Plates were incubated stacked for 90 minutes at room temperature before fluorescence was read on the Envision (Excitation at 485 nm and Emission at 535 nm; Perkin Elmer) or on the PheraSTAR (Excitation at 485 nm and Emission at 535 nm; BMG Labtech).
For follow-up studies, Each assay was performed in a final volume of 15 μL in assay buffer containing 20 mM Tris-HCl (pH 8.0, (1M Tris-HCl, pH 8.0 solution; Corning 46-031-CM)), 3 mM BME (2-Mercaptoethanol; Sigma 63689-25ML-F), 0.03% BGG ([…] filtered, Sigma, G7516-25G), and 0.01% Triton X-100 (Sigma, T9284-10L). Nanoliter quantities of either an 8-point or 10-point, 3-fold serial dilution in DMSO was pre-dispensed into assay plates (Perkin Elmer, ProxiPlate-384 F Plus, #) for a final test concentration of either 25 μM to 11 nM or 25 μM to 1.3 nM, respectively. Enzyme USP28, construct USP28 (USP28-5(1-1077)-TEV-6*His; LifeSensors) concentration and incubation times were optimized for the maximal signal-to-background while maintaining initial velocity conditions at a fixed substrate concentration. The final concentration of the enzyme in the assay was 75 pM. Final substrate (Ub-Rh110; Ubiquitin-Rhodamine 110, R&D Systems # U-555) concentration was 25 nM with [Ub-Rh110]<<Km. 5 μL of 2× enzyme was added to assay plates (pre-stamped with compound) preincubated with USP28 for 30 minutes and then 5 μL of 2×Ub-Rh110 was added to assay plates. Plates were incubated stacked for 20 minutes at room temperature before 5 μL of stop solution was added (final concentration of 10 mM citric acid (Sigma, 251275-500G)). Fluorescence was read on the Envision (Excitation at 485 nm and Emission at 535 nm; Perkin Elmer) or on the PheraSTAR (Excitation at 485 nm and Emission at 535 nm; BMG Labtech).
(§1) For both the USP28 and USP25 assay formats Data were reported as percent inhibition compared with control wells based on the following equation: % inh=1−((FLU−AveLow)/(AveHigh−AveLow)) where FLU=measured Fluorescence, AveLow=average Fluorescence of no enzyme control (n=16), and AveHigh=average Fluorescence of DMSO control (n=16). IC50 values were determined by curve fitting of the standard 4 parameter logistic fitting algorithm included in the Activity Base software package: IDBS XE Designer Model205. Data is fitted using the Levenburg Marquardt algorithm.

USP25 = USP25 (Homo sapiens (Human), UniProt Q9UHP3); experiment: Ubiquitin-Rhodamine 110 Assay for USP25 Activity; assay type: biochemical; conditions: Ub-Rh110 substrate 25 nM, fluorescence readout
Method: The assay was performed in a final volume of 9 μL in assay buffer containing 20 mM Tris-HCl (pH 8.0, (1M Tris-HCl, pH 8.0 solution; Corning 46-031-CM)), 3 mM BME (2-Mercaptoethanol; Sigma 63689-25ML-F), 0.03% BGG ([…] filtered. Sigma, G7516-25G), and 0.01% Triton X-100 (Sigma, T9284-10L). Nanoliter quantities of 10-point, 3-fold serial dilution in DMSO was pre-dispensed into 1536 assay plates (Corning, #3724BC) for a final test concentration of 25 μM to 1.3 nM, top to lowest dose, respectively. Enzyme USP25, construct USP25-His6, (Boston Biochem E-546). Concentration and incubation times were optimized for the maximal signal-to-background while maintaining initial velocity conditions at a fixed substrate concentration. The final concentration of the enzyme in the assay was 75 pM. Final substrate (Ub-Rh110 Ubiquitin-Rhodamine 110, R&D Systems # U-555) concentration was 25 nM with [Ub-Rh110]<<Km. 3 μL of 2× enzyme was added to assay plates (pre-stamped with compound) preincubated with […] for 30 minutes and then 3 μL of 2×Ub-Rh110 was added to assay plates. Plates were incubated for 45 minutes at room temperature before addition of 3 μL of stop solution (final concentration of 10 mM citric acid (Sigma, 251275-500G)). Fluorescence was read on the Envision (Excitation at 485 nm and Emission at 535 nm; Perkin Elmer) or on the PheraSTAR (Excitation at 485 nm and Emission at 535 nm; BMG Labtech).
as §1

Chain of USP25 (Q9UHP3 whole entry): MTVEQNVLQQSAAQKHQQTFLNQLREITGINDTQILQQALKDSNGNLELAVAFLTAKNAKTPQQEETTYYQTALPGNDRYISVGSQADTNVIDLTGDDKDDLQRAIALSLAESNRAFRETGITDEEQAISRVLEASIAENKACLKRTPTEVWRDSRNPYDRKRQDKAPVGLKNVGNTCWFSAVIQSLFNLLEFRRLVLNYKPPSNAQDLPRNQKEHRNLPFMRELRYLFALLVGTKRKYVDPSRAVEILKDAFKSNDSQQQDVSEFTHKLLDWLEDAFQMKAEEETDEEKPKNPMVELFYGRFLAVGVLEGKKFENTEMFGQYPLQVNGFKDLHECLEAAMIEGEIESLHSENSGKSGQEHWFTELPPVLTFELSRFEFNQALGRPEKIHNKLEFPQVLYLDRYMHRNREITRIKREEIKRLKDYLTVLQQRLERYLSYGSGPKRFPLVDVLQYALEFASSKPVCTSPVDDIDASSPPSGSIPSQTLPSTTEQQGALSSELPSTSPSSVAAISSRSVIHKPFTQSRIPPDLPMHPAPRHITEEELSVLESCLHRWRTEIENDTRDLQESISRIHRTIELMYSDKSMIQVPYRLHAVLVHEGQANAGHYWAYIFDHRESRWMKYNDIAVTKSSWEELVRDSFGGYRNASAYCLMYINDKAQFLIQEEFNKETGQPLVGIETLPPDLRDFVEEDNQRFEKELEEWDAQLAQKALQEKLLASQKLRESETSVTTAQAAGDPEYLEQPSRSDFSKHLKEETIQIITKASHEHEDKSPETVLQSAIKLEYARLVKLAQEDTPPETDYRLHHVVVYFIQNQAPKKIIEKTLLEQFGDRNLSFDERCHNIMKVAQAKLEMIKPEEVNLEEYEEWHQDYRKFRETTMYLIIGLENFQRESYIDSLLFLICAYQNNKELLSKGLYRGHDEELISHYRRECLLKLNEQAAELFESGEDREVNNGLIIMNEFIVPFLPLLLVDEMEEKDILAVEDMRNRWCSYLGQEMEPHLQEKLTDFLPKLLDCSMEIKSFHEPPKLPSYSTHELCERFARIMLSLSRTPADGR
Chain of USP28 (Q96RU2 whole entry): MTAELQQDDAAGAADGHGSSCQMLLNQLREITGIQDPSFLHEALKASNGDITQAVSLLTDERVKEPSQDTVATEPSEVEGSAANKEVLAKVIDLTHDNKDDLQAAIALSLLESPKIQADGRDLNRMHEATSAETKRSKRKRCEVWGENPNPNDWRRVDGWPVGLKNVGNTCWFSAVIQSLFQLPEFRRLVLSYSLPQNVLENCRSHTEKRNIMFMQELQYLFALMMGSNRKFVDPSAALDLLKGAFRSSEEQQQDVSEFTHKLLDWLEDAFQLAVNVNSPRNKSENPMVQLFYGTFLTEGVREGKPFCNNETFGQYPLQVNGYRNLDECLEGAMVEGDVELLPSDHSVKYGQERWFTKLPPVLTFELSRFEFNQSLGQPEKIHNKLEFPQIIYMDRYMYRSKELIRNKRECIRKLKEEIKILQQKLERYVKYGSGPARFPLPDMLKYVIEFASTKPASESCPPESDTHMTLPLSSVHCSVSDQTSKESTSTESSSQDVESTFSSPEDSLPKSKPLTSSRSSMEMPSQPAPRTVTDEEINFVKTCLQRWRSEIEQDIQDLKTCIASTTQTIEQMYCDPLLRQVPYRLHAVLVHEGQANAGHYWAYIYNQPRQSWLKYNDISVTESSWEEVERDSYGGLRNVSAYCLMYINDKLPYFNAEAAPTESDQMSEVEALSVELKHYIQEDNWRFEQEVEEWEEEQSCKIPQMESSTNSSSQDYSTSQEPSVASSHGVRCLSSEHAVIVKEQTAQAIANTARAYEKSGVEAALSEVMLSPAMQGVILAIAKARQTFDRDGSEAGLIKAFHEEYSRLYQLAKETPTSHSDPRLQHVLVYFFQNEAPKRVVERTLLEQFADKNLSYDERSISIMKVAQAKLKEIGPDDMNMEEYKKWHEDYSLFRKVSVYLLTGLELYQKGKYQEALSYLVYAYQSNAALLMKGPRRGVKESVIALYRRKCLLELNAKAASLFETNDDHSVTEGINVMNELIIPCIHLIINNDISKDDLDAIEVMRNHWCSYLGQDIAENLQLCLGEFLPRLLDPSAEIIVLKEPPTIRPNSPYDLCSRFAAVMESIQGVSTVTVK

SMILES | IC50 (USP28) [nM] | IC50 (USP25) [nM]
Cc1cnc2c(N)c(C(=O)NC[C@@H](C)c3ccc(N4CC5CCC(C4)N5)c(F)c3)sc2n1 (single isomer, unassigned) [Compound I-12] | 200 to 2000 | 2000 to 10000
Cc1cnc2c(N)c(C(=O)NC[C@H](C)c3ccc(N4CC5CCC(C4)N5)c(F)c3)sc2n1 (single isomer, unassigned) [Compound I-13] | 200 to 2000 | 2000 to 10000
Cc1cnc2c(N)c(C(=O)NC[C@@H](C)c3cc(F)c(N4CC5CCC(C4)N5)cc3F)sc2n1 (single isomer, unassigned) [Compound I-14] | 2000 to 10000 | –
Cc1cnc2c(N)c(C(=O)NC[C@H](C)c3cc(F)c(N4CC5CCC(C4)N5)cc3F)sc2n1 (single isomer, unassigned) [Compound I-15] | < 200 | 2000 to 10000
Cc1cnc2c(N)c(C(=O)NC[C@@H](C)c3ccc(N4CC5CCC(C4)N5)cc3F)sc2n1 (single isomer, unassigned) [Compound I-16] | 200 to 2000 | 200 to 2000
Cc1cnc2c(N)c(C(=O)NC[C@H](C)c3ccc(N4CC5CCC(C4)N5)cc3F)sc2n1 (single isomer, unassigned) [Compound I-17] | 200 to 2000 | 2000 to 10000
Cc1cnc2c(N)c(C(=O)NC[C@@H](C)c3ccc(N4CC5CCC(C4)N5)c(C#N)c3)sc2n1 (single isomer, unassigned) [Compound I-18] | 2000 to 10000 | 2000 to 10000
Cc1cnc2c(N)c(C(=O)NC[C@H](C)c3ccc(N4CC5CCC(C4)N5)c(C#N)c3)sc2n1 (single isomer, unassigned) [Compound I-19] | 2000 to 10000 | 2000 to 10000
Cc1cnc2c(N)c(C(=O)NC[C@@H](C)c3cc(F)c(N4CC5CNCC(C4)O5)cc3F)sc2n1 (single isomer, unassigned) [Compound I-21] | 200 to 2000 | 200 to 2000
Cc1cnc2c(N)c(C(=O)NC[C@H](C)c3cc(F)c(N4CC5CNCC(C4)O5)cc3F)sc2n1 (single isomer, unassigned) [Compound I-22] | 200 to 2000 | 200 to 2000
Cc1cnc2c(N)c(C(=O)NCCc3ccc(N4CCNCC4)cc3)sc2n1 [Compound I-1, 7-Amino-3-methyl-N-(4-(piperazin-1-yl)phenethyl)thieno[2,3-b]pyrazine-6-carboxamide] | 200 to 2000 | –
Cc1cnc2c(N)c(C(=O)NCCc3ccc(N4CCNCC4)c(Cl)c3)sc2n1 [Compound I-2] | 200 to 2000 | –
Cc1cnc2c(N)c(C(=O)NCCc3ccc(N4CC5CCC(C4)N5)c(Cl)c3)sc2n1 [Compound I-3, N-(4-(3,8-diazabicyclo[3.2.1]octan-3-yl)-3-chlorophenethyl)-7-amino-3-methylthieno[2,3-b]pyrazine-6-carboxamide] | < 200 | –
Cc1cnc2c(N)c(C(=O)NCCc3cc(F)c(N4CCNCC4)cc3F)sc2n1 [Compound I-4] | 200 to 2000 | 2000 to 10000
Cc1cnc2c(N)c(C(=O)NCCc3ccc(N4CC5CCC(C4)N5)c(F)c3)sc2n1 [Compound I-6] | < 200 | < 200
Cc1cnc2c(N)c(C(=O)NCCc3cc(F)c(N4CC5CCC(C4)N5)cc3F)sc2n1 [Compound I-7, N-(4-(3,8-diazabicyclo[3.2.1]octan-3-yl)-2,5-difluorophenethyl)-7-amino-3-methylthieno[2,3-b]pyrazine-6-carboxamide] | < 200 | 200 to 2000
Cc1cnc2c(N)c(C(=O)NCCc3ccc(N4CC5CCC(C4)N5)c(C#N)c3)sc2n1 [Compound I-9] | 200 to 2000 | 200 to 2000
Cc1cnc2c(N)c(C(=O)NCCc3ccc(N4CC5CCC(C4)N5)cc3F)sc2n1 [Compound I-10] | < 200 | 200 to 2000
Cc1cnc2c(N)c(C(=O)NCCc3c(F)cc(N4CC5CCC(C4)N5)cc3F)sc2n1 [Compound I-11] | 200 to 2000 | 200 to 2000
Cc1cnc2c(N)c(C(=O)NCCc3c(F)cc(N4CC5CNCC(C4)O5)cc3F)sc2n1 [Compound I-20] | < 200 | < 200
CCc1cnc2c(N)c(C(=O)NCCc3ccc(N4CC5CCC(C4)N5)cc3)sc2n1 [Compound I-23] | 2000 to 10000 | 200 to 2000
